Laboratory results as given in ChEMBL document CHEMBL1156025, “GDC-0449-a potent inhibitor of the hedgehog pathway” (Bioorg Med Chem Lett, 2009).
≈ marks a conversion by molar mass, not a printed value. Calls of active or inactive are those of the source. The calls are words filed in the database; no cut-off is given here.

What was measured:
[1] = Clearance in rat liver microsomes; assay type: ADME, Microsome
[2] = Clearance in dog liver microsomes; assay type: ADME, Canis lupus familiaris, Microsome
[3] = Plasma concentration in human Calu6 cells xenografted in nude mouse at 75 mg/kg, po bid measured after 4 hrs post fifth dose; assay type: ADME, organism-based, Calu-6; set-up: dose 75 mg/kg, route oral
[4] = Aqueous solubility at pH 1; assay type: physicochemical
[5] = Aqueous solubility at pH 6.5; assay type: physicochemical
Calu-6 = experiment: Inhibition of hedgehog pathway in human Calu6 cells xenografted in nude mouse assessed as decrease in Gli transcription at 75 mg/kg, po bid measured after 4 hrs post fifth dose; assay type: functional, organism-based; set-up: dose 75 mg/kg
Cytochrome P450 2C9 = Cytochrome P450 2C9 (Homo sapiens, UniProt P11712); experiment: Inhibition of CYP2C9; assay type: ADME
Plasma = experiment: (§1) Fraction unbound in human Calu6 cells xenografted in nude mouse plasma at 75 mg/kg, po bid measured after 4 hrs post fifth dose; assay type: ADME, organism-based, Calu-6; set-up: dose 75 mg/kg, route oral; conditions: in vivo, 4 h
[6] = as §1; assay type: ADME, organism-based, Calu-6; set-up: dose 75 mg/kg, route oral; conditions: nude, plasma

Chain of Cytochrome P450 2C9 (P11712 whole entry): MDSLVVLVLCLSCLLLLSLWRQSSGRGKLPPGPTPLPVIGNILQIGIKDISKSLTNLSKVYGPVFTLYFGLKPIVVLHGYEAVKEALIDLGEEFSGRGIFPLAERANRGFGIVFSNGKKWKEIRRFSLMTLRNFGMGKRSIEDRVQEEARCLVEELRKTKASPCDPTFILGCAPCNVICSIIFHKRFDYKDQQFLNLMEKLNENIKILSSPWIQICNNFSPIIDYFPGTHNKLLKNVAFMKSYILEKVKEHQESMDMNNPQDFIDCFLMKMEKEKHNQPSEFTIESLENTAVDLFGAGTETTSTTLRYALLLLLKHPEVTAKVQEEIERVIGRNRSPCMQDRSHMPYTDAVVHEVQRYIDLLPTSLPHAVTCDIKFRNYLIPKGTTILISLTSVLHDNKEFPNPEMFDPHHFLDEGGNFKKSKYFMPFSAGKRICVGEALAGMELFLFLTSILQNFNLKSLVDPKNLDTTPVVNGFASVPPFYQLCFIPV

Row | SMILES | CLint scaled [1] [L/h/kg] | CLint scaled [2] [L/h/kg] | concentration at 4 h [3] [µM] | solubility [4] [µg/mL] | solubility [5] [µg/mL] | Activity (Calu-6) | IC50 (Cytochrome P450 2C9) [µM] | Fu (Plasma) [%] | fraction unbound at 4 h [6]
1 | Cc1nc(C(F)(F)F)ccc1C(=O)Nc1ccc(Cl)c(-c2ccccn2)c1 | 0.27 | 0.114 | 0.86 | 1000 (≈ 2550 µM) | 1.8 (≈ 4.59 µM) | inactive |  |  | 
2 | Cc1nc(C(F)(F)F)ccc1C(=O)Nc1ccc(Cl)c(-c2nc3ccccc3[nH]2)c1 | 0.18 | 7.44 |  | 300 (≈ 696 µM) | 0.3 (≈ 0.696 µM) |  |  |  | 
3 | Cc1nc(C(F)(F)F)ccc1C(=O)Nc1ccc(Cl)c(-c2nc3ccccc3n2C)c1 |  |  |  |  |  |  | 2.5 |  | 
4 | CS(=O)(=O)c1ccc(C(=O)Nc2ccc(Cl)c(-c3ccccn3)c2)c(Cl)c1 [VISMODEGIB] | 0.222 | 0.024 | 23 | > 3000 | 9.5 (≈ 22.5 µM) |  |  | 9 | 
5 | CS(=O)(=O)c1ccc(C(=O)Nc2ccc(Cl)c(-c3ccccn3)c2)cc1 | 0.072 | 0.084 | 14 | 420 (≈ 1090 µM) | 0.5 (≈ 1.29 µM) | inactive |  |  | 0.03
6 | Cc1nc(C(F)(F)F)ccc1C(=O)Nc1ccc(Cl)c(-c2cnc3ccccc3n2)c1 | 0.642 | 0.444 |  | 0.1 (≈ 0.226 µM) | 0.1 (≈ 0.226 µM) |  |  |  | 
7 | Cc1nc(C(F)(F)F)ccc1C(=O)Nc1ccc(Cl)c(-n2cc3ccccc3n2)c1 | 5.96 |  |  |  |  |  |  |  | 
